The results in this text go back to ChEMBL document CHEMBL1201862, “PubChem BioAssay data set” (2004).

The structures appear in SMILES notation.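 1) Cells in 96-well plates. 2) Compound, 48 h, 5 concentrations. 3) Linear interpolation between surrounding doses. 4) Unreached endpoint = highest concentration. GI50 = concentration required for 50% inhibition of growth.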 Activity calls are given as the source filed them. Rule as the data show it: active = GI50 up to about 1.1 µM and inactive = higher.

What all share (test): inhibition of tumour cell growth, NCI panel, 48 h
Experiment [1] deals with SF-295.
For experiment [2], the system named is SK-MEL-28.
In experiment [3] the test system is 786-0.
For experiment [4], the system named is EKVX.
In experiment [5] the test system is SK-MEL-5.
Experiment [6] concerns SF-539.
The subject of experiment [7] is MOLT-4.
For experiment [8], the system named is M14.
For experiment [9], the system named is UACC-62.
Experiment [10] deals with RXF 393.
Experiment [11] deals with OVCAR-8.
For experiment [12], the system named is OVCAR-3.
In experiment [13] the test system is SNB-75.
The subject of experiment [14] is KM12.
The test system of experiment [15] is U-251.

`O=C(CC1(O)C(=O)Nc2ccccc21)c1ccccc1O` (centres undefined): the GI50 in experiment [1], in experiment [2], in [3], in [4], in [5] and in [6] was > 100 µM (inactive) in each case. Also, the GI50 in experiment [7], in [8], in experiment [9], in experiment [10], in experiment [11] and in experiment [12] was > 100 µM (inactive) each time. Moreover, the GI50 in [13] was > 100 µM (inactive).
Turning to `O=C(O)c1ccccc1C(=O)c1ccco1`, the GI50 in experiment [1], in experiment [2], in [3], in experiment [4], in experiment [5] and in experiment [6] was > 100 µM (inactive) throughout. The GI50 in [7], in experiment [8], in [9], in [14], in [10] and in [15] was > 100 µM (inactive) in each case. The GI50 in experiment [11], in experiment [12] and in experiment [13] was > 100 µM (inactive) throughout.
As to `CC(C)(C)c1cc2c(OP(c3ccccc3)c3ccccc3)c(c1)Cc1cc(C(C)(C)C)cc(c1OP(c1ccccc1)c1ccccc1)Cc1cc(C(C)(C)C)cc(c1OP(c1ccccc1)c1ccccc1)Cc1cc(C(C)(C)C)cc(c1OP(c1ccccc1)c1ccccc1)C2`, the GI50 in experiment [1], in [2], in experiment [3], in experiment [4], in experiment [5] and in [6] was > 5 µM (inactive) throughout. The GI50 was > 5 µM (inactive) in [7]; > 5 µM (inactive) in experiment [8]; > 5 µM (inactive) in experiment [9]; > 5 µM (inactive) in experiment [14]; 19.8 µM (inactive) in experiment [10]; > 5 µM (inactive) in [15]. The GI50 in [11], in experiment [12] and in [13] was > 5 µM (inactive) in each case.
As to `CC(C)(C)CC(C)(C)c1cc2c(O)c(c1)Cc1cc(C(C)(C)CC(C)(C)C)cc(c1O)Cc1cc(C(C)(C)CC(C)(C)C)cc(c1O)Cc1cc(C(C)(C)CC(C)(C)C)cc(c1O)Cc1cc(C(C)(C)CC(C)(C)C)cc(c1O)Cc1cc(C(C)(C)CC(C)(C)C)cc(c1O)Cc1cc(C(C)(C)CC(C)(C)C)cc(c1O)Cc1cc(C(C)(C)CC(C)(C)C)cc(c1O)C2`, the GI50 in experiment [1], in experiment [2], in [3], in experiment [4], in [5] and in [6] was > 100 µM (inactive) each time. The GI50 in experiment [7], in [8], in [9], in experiment [14], in [10] and in experiment [15] was > 100 µM (inactive) throughout. The GI50 in experiment [11] was > 100 µM (inactive); in experiment [12] it was > 100 µM (inactive); in [13], 23.9 µM (inactive).
Regarding `Cc1cc(N(CCC#N)CCC#N)ccc1/C=N\c1ccc(C(=O)NN2C(=O)/C(=C/c3ccc(N(CCC#N)CCC#N)cc3)N=C2c2cc([N+](=O)[O-])ccc2Cl)cc1`, the GI50 in experiment [2] was > 100 µM (inactive); in experiment [3] it was > 100 µM (inactive); in [4] it was > 100 µM (inactive); in experiment [5], 55.3 µM (inactive); in experiment [6], > 100 µM (inactive); in experiment [8], 62.7 µM (inactive). Besides, the GI50 in experiment [9] was 42.5 µM (inactive); in experiment [14], > 100 µM (inactive); in [10], > 100 µM (inactive); in [15], > 100 µM (inactive); in experiment [11], > 100 µM (inactive); in [12], > 100 µM (inactive). In addition, in [13], the GI50 was > 100 µM (inactive).
With `Cc1nc2c(n1C(C)(C)C)C(=O)c1ccccc1C2=O`, the GI50 in experiment [1] is 87.3 µM (inactive); in [2] it was > 100 µM (inactive); in experiment [3], > 100 µM (inactive); in experiment [4] it was > 100 µM (inactive); in [5], 38.9 µM (inactive); in experiment [6] it was > 100 µM (inactive). Moreover, the GI50 is 49 µM (inactive) in experiment [7]; > 100 µM (inactive) in experiment [8]; 44.3 µM (inactive) in experiment [9]; 74.1 µM (inactive) in experiment [14]; > 100 µM (inactive) in [10]; 84.5 µM (inactive) in [15]. Besides, the GI50 in experiment [11] was 56.8 µM (inactive); in experiment [12], 38.6 µM (inactive); in [13], 31.9 µM (inactive).
Consider `COC(=O)C12Oc3ccc(-c4ccc5c(c4O)C(=O)C4=CCC(C)C(O)C4(C(=O)OC)O5)c(O)c3C(=O)C1=CCC(C)C2O` (centres undefined), for which the GI50 is 2.02 µM (inactive) in experiment [1]; 1.67 µM (inactive) in experiment [2]; 1.53 µM (inactive) in experiment [3]; 1.88 µM (inactive) in experiment [4]; 1.63 µM (inactive) in [5]; 2.89 µM (inactive) in experiment [6]. The GI50 in experiment [7] was 5.66 µM (inactive); in experiment [8] it was 1.63 µM (inactive); in experiment [9] it was 1.29 µM (inactive); in [14] it was 1.47 µM (inactive); in experiment [10], 1.63 µM (inactive); in [15] it was 1.59 µM (inactive). For the same compound, the GI50 was 0.964 µM (active) in [11], 1.36 µM (inactive) in experiment [12] and 6.22 µM (inactive) in [13].
Consider `O=C(OCc1ccccc1)N1N=NC2C1C1CC(OCc3ccccc3)(OCc3ccccc3)C2O1` (centres undefined), for which the GI50 in experiment [1], in [2], in experiment [3], in experiment [5], in experiment [6] and in [7] was > 100 µM (inactive) each time. For the same compound, the GI50 in experiment [8], in [9], in [14], in [10], in experiment [15] and in [12] was > 100 µM (inactive) each time. The GI50 in experiment [13] was > 100 µM (inactive).
Consider `C[C@@H](O)CCC(=O)c1ccoc1`, for which the GI50 in experiment [1], in experiment [2], in [3], in experiment [4], in experiment [5] and in experiment [6] was > 100 µM (inactive) in each case. Besides, the GI50 in experiment [7], in experiment [8], in [9], in experiment [14], in experiment [10] and in experiment [15] was > 100 µM (inactive) each time. Also, the GI50 was > 100 µM (inactive) in experiment [11], > 100 µM (inactive) in experiment [12] and > 49.2 µM (inactive) in [13].
Consider `O=c1[nH]c(-c2ccc(-c3nc4cc([N+](=O)[O-])ccc4c(=O)[nH]3)cc2)nc2cc([N+](=O)[O-])ccc12`, for which the GI50 in experiment [1] is > 100 µM (inactive); in experiment [2], > 100 µM (inactive); in experiment [3], 72.9 µM (inactive); in experiment [4], > 100 µM (inactive); in [5], > 100 µM (inactive); in experiment [6], > 100 µM (inactive). For the same compound, the GI50 in experiment [7], in [8], in [9], in experiment [14], in experiment [10] and in experiment [15] was > 100 µM (inactive) in each case. The GI50 is > 100 µM (inactive) in [11], > 100 µM (inactive) in [12] and 42.1 µM (inactive) in experiment [13].
For the compound `COC(=O)C1CCC(=O)N1/C(C)=N/NC(=O)Nc1ccc(Cl)c(Cl)c1` (centres undefined), the GI50 in [1], in experiment [2], in [3], in experiment [4], in experiment [5] and in [6] was > 100 µM (inactive) throughout. The GI50 was 99.1 µM (inactive) in experiment [7]; > 100 µM (inactive) in [8]; 10.5 µM (inactive) in experiment [9]; 98.4 µM (inactive) in [14]; > 100 µM (inactive) in experiment [10]; > 100 µM (inactive) in [15]. Further, the GI50 in experiment [11] was > 100 µM (inactive); in [12], > 100 µM (inactive); in [13] it was 65.3 µM (inactive).
On to `CC1(Sc2ccccc2)CN(Cc2ccccc2)C1=O` (centres undefined), for which the GI50 in [1], in experiment [2], in experiment [3], in experiment [4], in experiment [5] and in experiment [6] was > 100 µM (inactive) throughout. In addition, the GI50 is 49.7 µM (inactive) in [7]; > 100 µM (inactive) in [8]; > 100 µM (inactive) in experiment [9]; > 100 µM (inactive) in experiment [14]; > 100 µM (inactive) in [10]; > 100 µM (inactive) in experiment [15]. For the same compound, the results for the GI50 in experiment [11], in [12] and in experiment [13] were > 100 µM (inactive), > 100 µM (inactive) and 39.6 µM (inactive), respectively.
As for `COC(=O)n1c(C[P+](c2ccccc2)(c2ccccc2)c2ccccc2)cc2ccccc21`, the GI50 is 2.29 µM (inactive) in experiment [1]; 4.16 µM (inactive) in [2]; 2.41 µM (inactive) in experiment [3]; 0.774 µM (active) in experiment [4]; 0.414 µM (active) in experiment [5]; 3.17 µM (inactive) in experiment [6]. Also, the GI50 in experiment [7] was 1.64 µM (inactive); in [8] it was 1.13 µM (inactive); in experiment [9], 2.77 µM (inactive); in [14] it was 1.19 µM (inactive); in experiment [10], 3.43 µM (inactive); in experiment [15] it was 2.81 µM (inactive). Besides, the GI50 is 0.566 µM (active) in experiment [11], 1.01 µM (active) in experiment [12] and 3.94 µM (inactive) in experiment [13].
